Test results as given in US20240148821A1, “PHARMACEUTICAL USE OF CYCLIC PEPTIDE COMPOUND” (CHUGAI SEIYAKU KABUSHIKI KAISHA, priority 2021, published 2024).
Like-named read-outs stand apart in the source and are kept apart here. Bridge positions count the residues as written; N and C are the ends. Square brackets hold non-standard residues; d marks the D form. Peptide text beside a SMILES is read from it. hPhe(3,5-F2-4-CF3) = N[C@@H](CCc1cc(F)c(C(F)(F)F)c(F)c1)C(=O)O; NEtPhe(4-Me) = CCN[C@@H](Cc1ccc(C)cc1)C(=O)O; NMeGly(cPent) = CN[C@H](C(=O)O)C1CCCC1; NMeD = CN[C@@H](CC(=O)O)C(=O)O; NMeL = CN[C@@H](CC(C)C)C(=O)O; NMeA = CN[C@@H](C)C(=O)O; Ac5c = NC1(C(=O)O)CCCC1; Aze = O=C(O)[C@@H]1CCN1; Sar = CNCC(=O)O

Tests used:
[1] = test system: Human pancreatic cancer cell line AsPC-1 (G12D mutation Kras); assay: AsPC-1 cell growth inhibition (AsPC-1 CGI); assay type: cell-based; conditions: read-out: AsPC-1 cell growth inhibition, 50% growth inhibitory concentration (IC50 value); 96 hours, CellTiter-Glo, values classified in ranges
Description: Test compounds were serially dilated with dimethyl sulfoxide, and 200 nL was then dispensed to a U-bottom 96-well plate using Labcyte Echo. […] The cell suspension was dispensed to a. plate containing a test compound at 100 μL per well and incubated at 37° C. in a 5% carbon dioxide gas incubator. 96 hours later, 80 μL of CellTiter-Glo (Promega) was added to each well and fluorescence was measured.

[2] = test system: large bowel carcinoma cell line LoVo; conditions: LoVo (Colon) xenograft, 10 mg/kg once daily, 10 days
Description: (§2) Each type of cell line was subcutaneously grafted into nude mice, which were randomized after tumor size reached 200 to 300 mm^3, and compound administration (once daily) was initiated (Day 0). The solvents used to dissolve the compounds were DMSO and Cremophor EL. […] From the tumor volume data on the last measurement day, the tumor growth inhibition rate (TGI %: Tumor Growth Inhibition %) was calculated using the following expressions.
(§3) tumor volume (mm^3):½×long diameter (mm)×short diameter (mm)×short diameter (mm)
(§4) amount of change in tumor volume (mm^3)=tumor volume after Day 0−tumor volume at Day 0 • TV: average value of amount of change in tumor volume in administered group • CV: average value of amount of change in tumor volume in non-administered group

[3] = test system: pancreatic cancer cell line KP4; conditions: KP4 (Pancreas) xenograft, 10 days
Description: as §2, §3, §4

[4] = test system: large bowel carcinoma cell line LS 180; assay: In vivo antitumor activity, mouse xenograft model, LS 180; conditions: LS 180 (Colon) xenograft, 7 days
Text: (§1) Tumor growth inhibition rate (TGI %)=(1−TV/CV)×100

[5] = test system: pancreatic cancer cell line MIA PaCa-2; conditions: MIA PaCa-2 (Pancreas) xenograft, 14 days
Description: as §2, §3, §4

[6] = test system: gastric cancer cell line MKN-1 with an amplified copy number of the KRAS gene; conditions: MKN1 (Stomach) xenograft, 10 days
Description: as §2, §3, §4

[7] = test system: various cancer cell lines (Ras mutation or amplification); assay: Measurement of cell growth inhibitory activity against various cancer cell lines (CellTiter-Glo); assay type: cell-based, human
Description: Various cancer cell lines used were purchased from commercial suppliers. […] The cell suspension and culture medium supplemented with serum were dispensed to a plate containing the test compounds at 40 μL (384 well plate) or 200 μL (96 well plate) per well and incubated in a carbon dioxide gas incubator. […] Six days or seven days after the start of cultivation, 20 μL of CellTiter-Glo (Promega) was added to each well and fluorescence was measured.

[8] = test system: non-small cell lung cancer cell line NC1-1441 with a KRAS mutation; assay: In vivo antitumor activity, mouse xenograft model, NCI-H441; conditions: NCI-H441 (NSCLC) xenograft, 14 days
Text: as §1

## CC[C@H](C)[C@@H]1NC(=O)[C@H](CC(C)C)N(C)C(=O)C[C@@H](C(=O)N(C)C)N(C)C(=O)[C@H](C2CCCC2)N(C)C(=O)C2(CCCC2)NC(=O)[C@@H]2CCCN2C(=O)[C@H](CCc2cc(F)c(C(F)(F)F)c(F)c2)NC(=O)CN(C)C(=O)[C@H](Cc2ccc(C)cc2)N(CC)C(=O)[C@@H]2CCN2C(=O)[C@H](C)N(C)C1=O [Compound 1217, (5S,8S,11S,15S,18S,23aS,29S,35S,37aS)-8-((S)-sec-butyl)-18-cyclopentyl-29-(3,5-difluoro-4-(trifluoromethyl)phenethyl)-36-ethyl-1l-isobutyl-N,N,5,6,12,16,19,33-octamethyl-35-(4-methylbenzyl)-4,7,10,13,17,20,23,28,31,34,37-undecaoxotetratriacontahydro-2H,4H-spiro[azeto[2,1-u]pyrrolo[2,1-i][1,4,7,10,13,16,19,22,25,28,31]undecaazacyclotetratriacontine-21,1′-cyclopentane]-15-carboxamide] ([NMeL]I[NMeA][Aze][NEtPhe(4-Me)][Sar][hPhe(3,5-F2-4-CF3)]P[Ac5c][NMeGly(cPent)][NMeD]-NMe2; lactam N-11)
[1]
  IC50: ≤ 20 nM
[2]
  TGI (%): 85%
[3]; 5 mg/kg once daily
  TGI (%): 65%
[3]; 10 mg/kg once daily
  TGI (%): 104%
[4]; 3 mg/kg once daily
  TGI (%): 11%
[4]; 5 mg/kg once daily
  TGI (%): 38%
[4]; 10 mg/kg once daily
  TGI (%): 65%
[5]; 3 mg/kg once daily
  TGI (%): 16%
[5]; 5 mg/kg once daily
  TGI (%): 65%
[5]; 10 mg/kg once daily
  TGI (%): 149%
[6]; 5 mg/kg once daily
  TGI (%): 55%
[6]; 10 mg/kg once daily
  TGI (%): 205%
[7]; A549, NSCLC, KRAS G12S
  IC50: 0.3 nM
[7]; AGS, Stomach, KRAS G12D
  IC50: 0.32 nM
[7]; AML-193, AML, NRAS G13V
  IC50: 11.8 nM
[7]; AsPC-1, Pancreas, KRAS G12D
  IC50: 0.87 nM
[7]; C-643, Thyroid, HRAS G13R
  IC50: 3.24 nM
[7]; CFPAC-1, Pancreas, KRAS G12V
  IC50: 17.3 nM
[7]; COR-L23, NSCLC, KRAS Amp (G12V)
  IC50: 2.85 nM
[7]; Calu-6, NSCLC, KRAS Q61K
  IC50: 43.7 nM
[7]; DLD-1, Colon, KRAS G13D
  IC50: 5.08 nM
[7]; DMS 53, SCLC, KRAS Amp
  IC50: 12.2 nM
[7]; FAMPAC, Pancreas, KRAS G12V
  IC50: 2.09 nM
[7]; HCC-44, NSCLC, KRAS G12C
  IC50: 0.55 nM
[7]; HCC-1171, NSCLC, KRAS G12C
  IC50: 4.86 nM
[7]; HCT-116, Colon, KRAS G13D
  IC50: 8.58 nM
[7]; HEC-50B, Endometrium, KRAS G12D
  IC50: 43.8 nM
[7]; HEC-151, Endometrium, NRAS G12D
  IC50: 2.42 nM
[7]; HLG-1, NSCLC, KRAS G12V
  IC50: 3.29 nM
[7]; HPAC, Pancreas, KRAS G12D
  IC50: 2.19 nM
[7]; HuG1-N, Stomach, KRAS Amp
  IC50: 3.74 nM
[7]; IPC-298, Skin, NRAS Q61L
  IC50: 23.5 nM
[7]; KE-39, Stomach, KRAS Amp
  IC50: 0.8 nM
[7]; KLE, Endometrium, KRAS Amp
  IC50: 170 nM
[7]; KMM-1, Myeloma, NRAS G13D
  IC50: 8.59 nM
[7]; KP4, Pancreas, KRAS G12D
  IC50: 3.3 nM
[7]; KURAMOCHI, Ovary, KRAS Amp
  IC50: 1.18 nM
[7]; LS 174T, Colon, KRAS G12D
  IC50: 4.31 nM
[7]; LS 180, Colon, KRAS G12D
  IC50: 0.83 nM
[7]; LS513, Colon, KRAS G12D
  IC50: 3.69 nM
[7]; LoVo, Colon, KRAS G13D
  IC50: 5.5 nM
[7]; MIA PaCa-2, Pancreas, KRAS G12C
  IC50: 1.45 nM
[7]; MKN-1, Stomach, KRAS Amp
  IC50: 1.77 nM
[7]; MOLT-4, ALL, NRAS G12C
  IC50: 175 nM
[7]; NCI-H23, NSCLC, KRAS G12C
  IC50: 3.92 nM
[7]; NCI-H358, NSCLC, KRAS G12C
  IC50: 1.55 nM
[7]; NCI-H441, NSCLC, KRAS G12V
  IC50: 1.12 nM
[7]; NCI-H460, NSCLC, KRAS Q61H
  IC50: 4.2 nM
[7]; NCI-H929, Myeloma, NRAS G13D
  IC50: 9.79 nM
[7]; NCI-H1373, NSCLC, KRAS G12C
  IC50: 2.33 nM
[7]; NCI-H1385, NSCLC, KRAS G12C
  IC50: 14.3 nM
[7]; NCI-H1792, NSCLC, KRAS G12C
  IC50: 0.86 nM
[7]; NCI-H1944, NSCLC, KRAS G13D
  IC50: 2.53 nM
[7]; NCI-H2009, NSCLC, KRAS G12A
  IC50: 2.35 nM
[7]; NCI-H2030, NSCLC, KRAS G12C
  IC50: 4.05 nM
[7]; NCI-H2122, NSCLC, KRAS G12C
  IC50: 0.8 nM
[7]; NOMO-1, AML, KRAS G13D
  IC50: 6.5 nM
[7]; PA-1, Ovary, NRAS G12D
  IC50: 2.38 nM
[7]; PANC-1, Pancreas, KRAS G12D
  IC50: 44.3 nM
[7]; RERF-LC-Ad2, NSCLC, KRAS G12V
  IC50: 5.2 nM
[7]; SK-CO-1, Colon, KRAS G12V
  IC50: 0.49 nM
[7]; SK-LU-1, NSCLC, KRAS G12D
  IC50: 26 nM
[7]; SK-MEL-30, Skin, NRAS Q61K
  IC50: 91.6 nM
[7]; SNU-1, Stomach, KRAS G12D
  IC50: 0.46 nM
[7]; SW403, Colon, KRAS G12V
  IC50: 4.1 nM
[7]; SW480, Colon, KRAS G12V
  IC50: 4.31 nM
[7]; T.T, Esophageal, KRAS Amp
  IC50: 5.68 nM
[7]; TYK-nu, Ovary, NRAS G12D, Q61K
  IC50: 1.14 nM
[7]; UM-UC-3, Bladder, KRAS G12C
  IC50: 2.11 nM
[8]; 3 mg/kg once daily
  TGI (%): 59%
[8]; 5 mg/kg once daily
  TGI (%): 92%
[8]; 10 mg/kg once daily
  TGI (%): 110%
